Converted amounts (≈) assume the structure as drawn.
Columns and labels:
[1] = cited from earlier work; for Humidity stability / form conversion: as disclosed in WO2020010216A1 (FIG. 1, Table 17)
[2] = low solubility and low permeability; cited from earlier work
[3] = Kinetic solubility in FeSSIF; format: physicochemical; details: 37° C., 30 min, 10 mg in 1 mL
Procedure: When solubility test is used to predict the in vivo performance of a drug, it is critical to simulate in vivo conditions as closely as possible. For oral medication, Fed-State Simulated Intestinal Fluid (FeSSIF) can be used to simulate the condition in vivo and predict the effects of feeding, thus solubility in such mediums is closer to that in vivo.
10 mg of Form CSII and 10 mg of prior art Form 1B were suspended into 1 mL of FeSSIF to get suspensions. After equilibrated at 37° C. for 30 min, the suspensions were filtrated to get saturated solutions. The concentrations (mg/mL) of Compound I of the saturated solutions were measured by HPLC.

[4] = Particle size distribution (laser particle size analyzer, wet mode); format: physicochemical
Procedure: The particle size distribution data in the present disclosure were acquired by an Mastersizer 3000 laser particle size analyzer of Malvern. The test was carried out in wet mode, using a Hydro MV dispersion device, and the dispersant was Isopar G. The parameters are as follows:
An appropriate amount of Form CSII of the present disclosure and prior art Form 1B was tested particle size distribution. The average particle diameter calculated by volume, the diameter at which 10% mass is comprised of smaller particles (D10), the diameter at which 50% mass is comprised of smaller particles (D50) and the diameter at which 90% mass is comprised of smaller particles (D90) were obtained in particle size distribution test.

Morphology by microscopy = format: physicochemical; details: magnification of 200 times
From the text: An appropriate amount of Form CSII of the present disclosure was placed on a glass slide and dispersed with vacuum pump oil. It was covered with a cover glass slide and shoot at a magnification of 200 times.

[5] = Flowability (compressibility index, USP <1174>); format: physicochemical; details: for Compressibility index: c=(pf−p0)/pf; for Flowability: criteria of USP <1174> Powder Flow
Procedure: Compressibility index is usually utilized to evaluate the flowability of powder or granules during the drug product process. Compressibility index test method is as follows: a certain amount of powder was added into a measuring cylinder and bulk volume was recorded. Then the powder was tapped to make it in the tightest state and the tapped volume was recorded. The bulk density (p0), tapped density (pf) were calculated and compressibility index was calculated according to c=(pf−p0)/pf. According to the criteria of flowability in USP General Charpters: <1174> Powder Flow, the flowability results are shown in Table 10.

[6] = Compressibility (tablet hardness / tensile strength); format: physicochemical; details: 60 mg, φ6 mm round tooling, 5 KN; for Hardness: 24 h recovery
Procedure: An ENERPAC manual tablet press was used for compression. 60 mg of Form CSII and prior art Form 1B were weighed and added into the dies of a φ6 mm round tooling, compressed at 5 KN manually, then stored at room temperature for 24 h until elastic recovery is complete, hardness (H) was tested with an intelligent tablet hardness tester. Diameter (D) and thickness (L) were tested with a caliper. Tensile strength of the powder was calculated with the following formula: T=2H/TTDL. Under a certain force, the greater the tensile strength, the better the compressibility.

[7] = Adhesiveness (material sticking to the punch); format: physicochemical; details: 30 mg, Φ8 mm round tooling, 10 KN, held 30 s
Procedure: 30 mg of Form CSII and 30 mg of prior art Form 1B were weighed and then added into the dies of Φ8 mm round tooling, compressed at 10 KN by ENERPAC manual tablet press and held for 30 s. The punch was weighed and amount of material sticking to the punch was calculated. The compression was repeated twice and the average amount of material sticking to the punch during the compression were calculated.

[8] = Storage stability of Form CSII drug substance (XRPD, HPLC); format: physicochemical
Procedure: An appropriate amount of Form CSII of the present disclosure were stored under different sealed conditions of 25° C./60% RH and 40° C./75% RH with desiccant and antioxidant. Chemical purity and crystalline form were checked by HPLC and XRPD, respectively. […] Form CSII has good stability under both long-term and accelerated conditions.

[9] = Stability upon mechanical force (tableting pressure, grinding); format: physicochemical
[10] = Crystal form stability in formulation process; format: physicochemical; details: formulation of Table 15, process of Table 16
From the text: Form CSII of the present disclosure was made into capsules using the formulation in Table 15 and the preparation process in Table 16. The XRPD patterns were collected before and after the formulation process.

[11] = 25° C./60% RH, sealed with desiccant and antioxidant, 6 months
[12] = 40° C./75% RH, sealed with desiccant and antioxidant, 6 months

| SMILES | Humidity stability / form conversion [1] | Solubility [3] | D10 [4] | D50 [4] | D90 [4] | MV (average particle diameter calculated by volume) [4] | Bulk density [5] | Tapped density [5] | Compressibility index [5] | Flowability [5] | Tensile strength [6] | Hardness [6] | Average amount of material sticking to the punch [7] | other results |
| --- | --- | --- | --- | --- | --- | --- | --- | --- | --- | --- | --- | --- | --- | --- |
| CCNCCc1ccc(CN(CC)c2cc(OC)ccc2[C@@H]2CCc3cc(O)ccc3C2)cc1 [Form 2] | transitions to Form 3 when humidity is below 40% RH | – | – | – | – | – | – | – | – | – | – | – | – | – |
| CCNCCc1ccc(CN(CC)c2cc(OC)ccc2[C@@H]2CCc3cc(O)ccc3C2)cc1 [Form 1] | transitions to Form 3 under high humidity conditions | – | – | – | – | – | – | – | – | – | – | – | – | – |
| CCNCCc1ccc(CN(CC)c2cc(OC)ccc2[C@@H]2CCc3cc(O)ccc3C2)cc1 [Elacestrant, (R)-6-{2-{ethyl [4-(2-ethylaminoethyl)benzyl]amino}-4-methoxyphenyl}-5,6,7,8-tetrahydronaphthalen-2-ol] | – | – | – | – | – | – | – | – | – | – | – | – | – | BCS class [2]: BCS class IV |
| CCNCCc1ccc(CN(CC)c2cc(OC)ccc2[C@@H]2CCc3cc(O)ccc3C2)cc1 [Form CSII, (R)-6-{2-{ethyl [4-(2-ethylaminoethyl)benzyl]amino}-4-methoxyphenyl}-5,6,7,8-tetrahydronaphthalen-2-ol] | – | 2590 µg/mL (≈ 5.65 mM) | 2.11 μm | 14.9 μm | 28.3 μm | 15.8 μm | 0.237 g/mL | 0.266 g/mL | 11 | Good | 0.97 MPa | 18.4 kgf | 0.21 mg | Agglomeration (morphology) (Morphology by microscopy): no agglomeration; Maximum particle size (Morphology by microscopy): 30-40 μm; Time kept stable (crystalline state unchanged) ([8]; 25° C./60% RH): at least 6 months; Form (XRPD) [8, 11]: Form CSII; Purity [8, 11]: 99.60%; Time kept stable (crystalline state unchanged) ([8]; 40° C./75% RH): at least 6 months; Form (XRPD) [8, 12]: Form CSII; Purity [8, 12]: 99.58%; Form (XRPD) ([8]; Initial): Form CSII; Purity ([8]; Initial): 99.59%; Solid form after tableting ([9]; Pressure 5 kN): Form CSII; Solid form after tableting ([9]; Pressure 10 kN): Form CSII; Solid form after tableting ([9]; Pressure 15 kN): Form CSII; Crystalline form after grinding ([9]; grinding (ball milling, FIG. 5)): doesn't change; Crystalline form before and after formulation process [10]: remains stable |
| CCNCCc1ccc(CN(CC)c2cc(OC)ccc2[C@@H]2CCc3cc(O)ccc3C2)cc1 [Form 3] | transitions to Form 2 when humidity is above 40% RH | – | – | – | – | – | – | – | – | – | – | – | – | – |
| CCNCCc1ccc(CN(CC)c2cc(OC)ccc2[C@@H]2CCc3cc(O)ccc3C2)cc1 [Prior art Form 1B, reference compound] | can maintain stability at humidity above 90% RH | 1170 µg/mL (≈ 2.55 mM) | 1.64 μm | 286 μm | 839 μm | 350 μm | 0.198 g/mL | 0.248 g/mL | 20 | Fair | 0.44 MPa | 9.3 kgf | 0.59 mg | Particle morphology ([1]; Table 17 of WO2020010216A1): very small flaky particle mainly composed of aggregates |
